Reference: US6699681B2, “Endothelin converting enzymes and the amyloid β peptide” (Mayo Foundation for Medical Education and Research, priority 2000, dated 2004)

B1: SolECE-1: recombinant soluble form of ECE-1: extracellular domain of human ECE-1a with c-myc and 6×His tags, secreted by CHO cells (protein, UniProt P42892 90-770, looked up)
extracellular domain: QYQTRSPSVCLSEACVSVTSSILSSMDPTVDPCHDFFSYACGGWIKANPVPDGHSRWGTFSNLWEHNQAIIKHLLENSTASVSEAERKAQVYYRACMNETRIEELRAKPLMELIERLGGWNITGPWAKDNFQDTLQVVTAHYRTSPFFSVYVSADSKNSNSNVIQVDQSGLGLPSRDYYLNKTENEKVLTGYLNYMVQLGKLLGGGDEEAIRPQMQQILDFETALANITIPQEKRRDEELIYHKVTAAELQTLAPAINWLPFLNTIFYPVEINESEPIVVYDKEYLEQISTLINTTDRCLLNNYMIWNLVRKTSSFLDQRFQDADEKFMEVMYGTKKTCLPRWKFCVSDTENNLGFALGPMFVKATFAEDSKSIATEIILEIKKAFEESLSTLKWMDEETRKSAKEKADAIYNMIGYPNFIMDPKELDKVFNDYTAVPDLYFENAMRFFNFSWRVTADQLRKAPNRDQWSMTPPMVNAYYSPTKNEIVFPAGILQAPFYTRSSPKALNFGGIGVVVGHELTHAFDDQGREYDKDGNLRPWWKNSSVEAFKRQTECMVEQYSNYSVNGEPVNGRHTLGENIADNGGLKAAYRAYQNWVKKNGAEHSLPTLGLTNNQLFFLGFAQVWCSVRTPESSHEGLITDPHSPSRFRVIGSLSNSKEFSEHFRCPPGSPMNPPHKCEVW
modifications: extracellular domain c-myc and 6xHis tags
notes: recombinant soluble form of ECE-1: extracellular domain of human ECE-1a with c-myc and 6×His tags, secreted by CHO cells

Key:
[1] = test system: H4 neuroglioma cells; test: Extracellular Aβ after treatment of H4 cells with metalloprotease inhibitors; type: cell-based, human; conditions: H4 neuroglioma cells; thiorphan or captopril at concentrations greater than 1000-times the reported IC50 for the target enzymes
Procedure: Human and guinea pig Aβ40 or Aβ42 was measured in plasma by sandwich ELISA as previously described (Suzuki et al., 1994, Science, 264:1336-1340) using the BAN-50/BA-27 or BAN-50/BC-05 antibody systems, respectively (Takeda; Japan). Hamster Aβ40- or Aβ42-derived from CHO cells was measured using the BNT-77/BA-27 or BNT-77/BC-05 antibody systems, respectively. Aβ concentration in samples was determined by comparison to synthetic Aβ40 or Aβ42 standards (Bachem, Switzerland). Data was obtained from triplicate wells.
In particular, the sandwich ELISA used herein was performed as follows: 96-well microtiter plates were coated overnight at 4° C. with 100 μl of a 5 μg/ml dilution of primary antibody in sodium carbonate coating buffer (SCCB; 0.1 M Na2CO3, pH 9.6). Plates were blocked overnight at 4° C. with 300 μl of BLOCKAGE Solution (PBS+1.0% BLOCKAGE (Snow Brand Milk Products, Japan), 0.05% NaN3, pH 7.4). Samples for analysis and synthetic Aβ standards (Bachem, Switzerland) were diluted in buffer EC (0.02 M NaH2PO4, 0.002 M EDTA, 0.4 M NaCl, 0.2% BSA, 0.05% CHAPS, 0.04% BLOCKAGE, 0.05% NaN3, pH 7.0) and allowed to incubate on the plates overnight at 4° C. Plates were washed twice with PBS (8 mM Na2HPO4, 1.5 mM KH2PO4, 139 mM NaCl, 2.7 mM KCl, pH 7.4) and 100 μl of secondary antibody directly coupled to HRP (EZ-LINK™ Plus Activated Peroxidase kit (contents of kit: peroxidase, 5 M sodium cyanoborohydride solution (NaBH3CN), quenching buffer (3 M ethanolamine, pH 9.0), BupH™ phosphate buffered saline, Buph™ carbonate-bicarbonate buffer), according to manufacturers directions; Pierce Chemical Co., Rockford, Ill.) was allowed to bind either 4 hrs at room temperature or overnight at 4° C. Plates were then washed twice with PBS containing 0.05% Tween 20 followed by two additional washes in PBS. Detection was performed using TMB (3,3′,5,5′-tetramethyl-benzidine) as an HRP substrate according to the manufacturer's specifications (Kirkegaard & Perry Laboratories (KPL), Gaithersburg, Md.) and the reaction stopped by the addition of 100 μl of 1N H3PO4. Plates were read at 450 nm in a SpectraMax Plus spectrophotometer (Molecular Devices; Sunnyvale, Calif.) and analyzed by SOFTmax® PRO software. Aβ40 or Aβ42 were quantitated by comparison with the values obtained for each synthetic Aβ standard from the same plate.
Cells were passaged into 6-well plates one day prior to treatment and grown to confluence. […] After treatment, the culture medium was harvested, spun at 14,000 xg, and the supernatant analyzed for Aβ40 or Aβ42 using sandwich ELISA and for secreted APP using Western blot. […] Bound antibody was detected by incubation with the appropriate HRP-linked secondary antibody (Amersham, Uppsala, Sweden) using ECL™ Western blotting reagents (Amersham) followed by exposure to X-ray film. […]

[2] = test system: Aβ in the brain; conditions: infusion into the brain of rats; deposition of Aβ42; previous report; cited from earlier work
[3] = test system: synthetic Aβ40 or Aβ42; test: Aβ degradation by SolECE-1, sandwich ELISA; type: biochemical; conditions: SolECE-1 approximately 0.2 μM; Aβ 0.01 μM; 24 hrs at 37° C., pH 6.5
Procedure: (§1) SolECE-1 (approximately 0.2 μM) was pre-incubated for 15 min at room temperature with the ECE inhibitors PD069185 (synthesized according to published methods (Ahn et al., 1998, Biochem. Biophys. Res. Comm., 243:184-190) by the Mayo Clinic Organic Chemistry Core Facility, Jacksonville, Fla.) or phosphoramidon (150 μM), or an equal volume of vehicle (DMSO or PBS, respectively) prior to incubation with synthetic Aβ40 or Aβ42 (0.01 μM) in 50 mM MES (pH 6.5) containing 0.01% C12E10, 1 mM PMSF, 100 μM leupeptin, and 20 μM pepstatin. As a control, Aβ was incubated with Ni-NTA purified proteins from non-transfected CHO cells, or in reaction buffer alone. Following incubation for 24 hrs at 37° C., the reactions were stopped by the addition of 5 mM EDTA. Aβ concentration was then analyzed using a highly specific sandwich ELISA that captures Aβ via binding of antibody BAN-50 to the N-terminus, and detects only full-length Aβ peptides ending at residue 40 (using antibody BA-27) or 42 (using antibody BC-05). Thus, Aβ that has been further hydrolyzed will not be detected using this assay. To further analyze the degradation of Aβ by SolECE1, the enzyme was incubated with ^3H labeled Aβ40 (0.56 μM, 2×10^4 dpm) as described above and resulting peptides were separated by reverse-phase chromatography.

[4] = test system: 3H-Aβ40; test: Degradation of 3H labeled Aβ40 by SolECE-1, reverse-phase chromatography; type: biochemical; conditions: 3H-Aβ40 0.56 μM
Procedure: as §1

Molecule | extracellular Aβ accumulation [1] | amount of Aβ in the brain [2] | loss of synthetic Aβ40 and Aβ42 detected by sandwich ELISA [3] | effect on 3H-Aβ40 by reverse-phase chromatography [4]
C[C@H](CS)C(=O)N1CCC[C@H]1C(=O)O [captopril] | failed to result in increased extracellular Aβ | – | – | –
O=C(O)CNC(=O)C(CS)Cc1ccccc1 (centres unmarked) [thiorphan] | failed to result in increased extracellular Aβ | significant increase | – | –
B1 | – | – | almost complete loss | loss of the full-length (i.e., unhydrolyzed) Aβ and the formation of at least 4 novel peaks
